Where two headings read alike, the source gives them in different places. Numbered stars: 1 amine (or outer) side, 2 acyl side, 3 side chain; on linkers, the order of the positions; unused ones are H or OH. Bridge positions count the residues as written; N and C are the ends. Square brackets hold non-standard residues; d marks the D form. Peptide text beside a SMILES is read from it. I, II: the chains in the order shown. Actinocin(9to1) = Cc1c2oc3c(C)ccc(C(=O)[*:1])c3nc-2c(C(=O)[*:2])c(N)c1=O; NMeV = CN[C@H](C(=O)O)C(C)C; Sar = CNCC(=O)O
Assays:
[1] = test system: multi-drug resistant ovarian cancer cell line NCI/ADR-RES; test: Cell growth assay on NCI/ADR-RES cells; format: cell-based
Excerpt: (§1) In these experiments, the following cell lines were used: CHOP-resistant NHL cell line G3, CHOP-sensitive NHL cell line CRL2631, the multi-drug resistant sarcoma cell line MES-SA-Dx5; multi-drug-resistant breast cancer cell line MDA-MB-231, multi-drug resistant ovarian carcinoma cell line SK-OV3, multi-drug resistant ovarian cancer cell line NCI/ADR-RES, drug-sensitive ovarian cancer cell line OVCAR-5, and multi-drug resistant ovarian cancer cell line OVCAR-3.
(§2) Additional cell lines used include: ovarian cancer OVCAR-8. T lymphoblastoid leukemia MOLT-4, dexamethasone-resistant multiple myeloma MM.1R, myeloid leukemia cells HL-60, osteosarcoma cells U-2 OS, and myeloma RPMI 8226.

[2] = test system: multi-drug resistant ovarian cancer cell line (NCI/ADR-RES) xenografts; test: NCI/ADR-RES xenograft efficacy studies in nude mice; format: in vivo; details: DOXIL 7 mg/kg i.v. + RTI-79 25 mg/kg oral
Excerpt: In a sixth efficacy study, we generated xenografts of multi-drug resistant ovarian cancer cell line (NCI/ADR-RES) by implantation of NCI/ADR-RES cell xenografts in the left and right flanks of nude mice, resulting in two tumors per mice. […] Tumor size was monitored.
In a seventh efficacy study, we generated xenografts of multi-drug resistant ovarian cancer cell line (NCI/ADR-RES) by implantation of NCI/ADR-RES cells xenografts in the left and right flanks of nude mice, resulting in two tumors per mouse. […] Tumor size was monitored.

[3] = test system: drug-sensitive ovarian cancer cell line OVCAR-5; test: Cell growth assay on OVCAR-5 cells; format: cell-based
Excerpt: as §1, §2

total intracellular ROS = test: Intracellular ROS by CellROX staining and flow cytometry; format: cell-based; details: for Induction of ROS: OVCAR8, ADR-RES and G3 cells, 2 hrs, 10 uM, FIG. 38
Excerpt: Cells were then stained with the fluorescent ROS indicator, CellROX, and subjected to flow cytometry to quantitate total intracellular ROS.
The electron transport chain (ETC) is known to be a primary generator of ROS in the cell. Most of the ROS is generated by Complexes I and III of the ETC. Inhibition of Complex I results in electrons piling up and leaking to react with oxygen to produce ROS.
(§3) MDR/P-gp activity is closely associated with calcium status in the cell, so calcium modulators were tested for effects on ROS. […] Relatively Dox-sensitive lymphoma (CRL2631, 10S, WSU) and ovarian carcinoma (OVCAR8) and more Dox-resistant lymphoma (G3R, 10R, WSUR) and ovarian carcinoma (ADR) were treated with 10 uM […] for 2 hrs. […] Cells were co-stained with the cell-permeable red fluorescent ROS indicator, CellROX, and cell-permeable green fluorescent calcium indicator. Fluo-4AM, and then subjected to flow cytometry to quantitate changes in ROS and calcium levels.
(§4) All samples were analyzed at the same time in flow cytometry.

MMP2 = MMP2 secretion ELISA in U2-OS cells; format: cell-based; details: 5 uM RTI-79
calcium mobilization = test: Calcium mobilization by Fluo-4AM staining and flow cytometry; format: cell-based
Method: as §3, §4

[4] = test system: CHOP-resistant G3 NHL cells; test: Cell growth assay (resazurin fluorescence) on G3 cells; format: cell-based, human; details: for Magnitude of potentiation in combination with doxorubicin: G3; for IC50: Homo sapiens
Method: Compositions were tested on CHOP-resistant G3 NHL cells that had been cultivated in RPMI medium for five days. Prior to assay, the cells were counted by haemocytometer and cell concentration standardized to 625,000 cells/ml. Test drugs were solubilized in 100% DMSO and then diluted to final assay concentration with 0.1M phosphate buffered saline (PBS) and a final DMSO concentration of 0.5%. […] The metabolic dye rezasurin was added to the wells of the assay plate at a final concentration of 20 μg/ml and the plates were incubated for an additional 24 hours. The plates were then read in a BMG Polarstar plate reader at wavelength (573-605) and the data plotted as OD versus increasing dilutions (i.e., decreasing total amounts) of rifabutin derivative concentration.
as §1, with “OVCAR-3. […]” for “OVCAR-3.”

[5] = test system: multi-drug resistant ovarian cancer cell line OVCAR-3; test: Cell growth assay on OVCAR-3 cells; format: cell-based
Excerpt: as §1, §2

[6] = mice treated with RTI-79 with or without DOX
Method: Swiss mice were dosed with levels equal to and exceeding that of intended doses.

[7] = Pharmacokinetics (plasma concentration, half-life, tissue absorption); details: after administration
[8] = test system: multi-drug-resistant breast cancer cell line MDA-MB-231; test: Cell growth assay on MDA-MB-231 cells; format: cell-based
Excerpt: as §1, §2

[9] = test system: primary human fibroblasts; test: Comparative cytotoxicity on primary human fibroblasts; details: FIG. 3A and 3B
[10] = test system: multi-drug resistant sarcoma cell line MES-SA-Dx5; test: Cell growth assay on MES-SA-Dx5 cells; format: cell-based
Excerpt: as §1, §2

[11] = test system: multi-drug resistant ovarian carcinoma cell line SK-OV3; test: Cell growth assay on SK-OV3 cells; format: cell-based, human
Excerpt: as §1, with “OVCAR-3. […]” for “OVCAR-3.”

VEGF = VEGF secretion ELISA in U2-OS cells; format: cell-based; details: RTI-79
[12] = test system: T lymphoblastoid leukemia MOLT-4; test: Cell growth assay on MOLT-4 cells; format: cell-based; details: with Rifabutin vs drug alone
Excerpt: as §2

4-deoxy-3,4[2-spiro-[1-(isobutyloxycarbonyl)-piperidin-4-yl]]-(1H)-imidazo-(2,5-dihydro)rifamycin S [RTI-79]
Magnitude of potentiation in combination with doxorubicin [1]: ++ (++ potentiation between 2.1 to 5 fold increase)
Tumor volume lower than in mice receiving only DOXIL ([2]; seventh study, after 46 days): 55%
Tumor volume reduction during the course of the study ([2]; seventh study): 50%
Tumor volume lower than in mice receiving only DOXIL ([2]; sixth study, after 41 days): 66%
Magnitude of potentiation in combination with doxorubicin [3]: + (+ potentiation between 1.2 to 2.0 fold increase)
Time after exposure at which increases in ROS were seen (total intracellular ROS; G3 cells, 10 uM RTI-79): 1 min
Induction of ROS (total intracellular ROS): induced ROS
MMP2 secretion (MMP2): 10.5 ng/million cells
Time of treatment before calcium mobilization occurred (calcium mobilization; G3 cells, 10 uM RTI-79): > 15 min
Magnitude of potentiation in combination with doxorubicin [4]: ++ (++ potentiation between 2.1 to 5 fold increase)
Magnitude of potentiation in combination with doxorubicin [5]: + (+ potentiation between 1.2 to 2.0 fold increase)
Heart tissue histology (H&E) and complete blood count and manual differential [6]: no significant differences
Time to maximal plasma concentration [7]: ≤ 3 h
Magnitude of potentiation in combination with doxorubicin [8]: + (+ potentiation between 1.2 to 2.0 fold increase)
Toxicity to normal cells [9]: not toxic
Magnitude of potentiation in combination with doxorubicin [10]: ++ (++ potentiation between 2.1 to 5 fold increase)
Magnitude of potentiation in combination with doxorubicin [11]: +++ (+++ potentiation greater than 5 fold increase)
VEGF secretion (VEGF): 436 pg/million cells

11-deoxy-11-amino-4-deoxy-3,4[2-spiro-[1-(isobutyloxycarbonyl)-piperidin-4-yl]]-(1H)-imidazo-(2,5-dihydro)rifamycin S [RTI-176]
Magnitude of potentiation in combination with doxorubicin [3]: + (+ potentiation between 1.2 to 2.0 fold increase)
Magnitude of potentiation in combination with doxorubicin [4]: +++ (+++ potentiation greater than 5 fold increase)
Fold increase in potency over DOX alone ([4]; lymphoma cell line G3): 5.2 fold
Toxicity to normal cells [9]: not toxic
Magnitude of potentiation in combination with doxorubicin [11]: +++ (+++ potentiation greater than 5 fold increase)

Cc1c2oc3c(C)ccc(C(=O)N[C@@H]4C(=O)N[C@H](C(C)C)C(=O)N5CCC[C@H]5C(=O)N(C)CC(=O)N(C)[C@@H](C(C)C)C(=O)O[C@@H]4C)c3nc-2c(C(=O)N[C@@H]2C(=O)N[C@H](C(C)C)C(=O)N3CCC[C@H]3C(=O)N(C)CC(=O)N(C)[C@@H](C(C)C)C(=O)O[C@@H]2C)c(N)c1=O [Actinomycin D, actinomycin D, reference compound] (I: T[dV]P[Sar][NMeV] / II: T[dV]P[Sar][NMeV]; ester I:1-I:C, II:1-II:C; linker I:N-II:N via Actinocin(9to1))
Fold increase in potency [12]: >5 fold
Fold increase in potency ([10]; with Rifabutin vs drug alone): 3 fold

CO[C@H]1/C=C/O[C@@]2(C)Oc3c(C)c(O)c4c(c3C2O)C2=NC3(CCN(C(=O)OCC(C)C)CC3)NC2=C(NC(=O)/C(C)=C\C=C\[C@H](C)[C@H](O)[C@@H](C)[C@@H](O)[C@@H](C)[C@H](OC(C)=O)[C@@H]1C)C4=O (stereo partly drawn) [RTI-175, 11-deoxy-11-hydroxy-4-deoxy-3,4[2-spiro-[1-(isobutyloxycarbonyl)-piperidin-4-yl]]-(1H)-imidazo-(2,5-dihydro)rifamycin S]
Magnitude of potentiation in combination with doxorubicin [1]: ++ (++ potentiation between 2.1 to 5 fold increase)
Magnitude of potentiation in combination with doxorubicin [3]: ++ (++ potentiation between 2.1 to 5 fold increase)
Magnitude of potentiation in combination with doxorubicin [4]: ++ (++ potentiation between 2.1 to 5 fold increase)
IC50 [4]: > 64 µM
IC50 ([4]; read-out: IC50 (μM) with doxorubicin (1 μM)): 1.06 µM
Magnitude of potentiation in combination with doxorubicin [5]: + (+ potentiation between 1.2 to 2.0 fold increase)
Magnitude of potentiation in combination with doxorubicin [10]: + (+ potentiation between 1.2 to 2.0 fold increase)
Magnitude of potentiation in combination with doxorubicin [11]: +++ (+++ potentiation greater than 5 fold increase)

COc1cc2c(cc1OC)CN(CCc1ccc(NC(=O)c3cccc4c(=O)c5cccc(OC)c5[nH]c34)cc1)CC2 [elacridar]
Induction of ROS relative to control drugs (total intracellular ROS; ADR and OVCAR8 cells, FIG. 41A): induced ROS
Induction of ROS (total intracellular ROS): induced ROS
Induction of calcium (calcium mobilization; FIG. 41B): induced calcium

From US9539237B2, “Compositions and methods for drug-sensitization or inhibition of a cancer cell” (The Texas A&M University System, priority 2012, dated 2017)
